Where a name gives a salt, the structure may show the parent alone. Read-outs that look alike come from different tables or passages of the source.
Experiments:
Sprague–Dawley rats [1] = experiment: Acoustic startle: startle magnitude; format: in vivo, rat
Sprague–Dawley rats [2] = experiment: Prepulse inhibition; format: in vivo, rat
Sprague–Dawley rats [3] = experiment: Behavioral Pattern Monitor locomotor activity; format: in vivo, rat; conditions: 5-MeO-DMT 1 mg/kg SC, clorgyline 0.3 mg/kg pretreatment; fifth 10-min time block, p<0.05
[4] = 5-MeO-DMT and bufotenine levels in plasma by LC-ESI-SRM-MS/MS; format: in vivo, rat; conditions: for AUC / Cmax: rat, plasma, sc, 1 mg/kg, 1 mg/kg SC; for AUC: plasma AUC20→70 min for 5-MeO-DMT, trapezoidal rule; for Cmax: plasma Cmax of 5-MeO-DMT
[5] = 5-MeO-DMT and bufotenine levels in whole brain by LC-ESI-SRM-MS/MS; format: in vivo, rat; conditions: for Cmax: rat, whole brain, sc, 1 mg/kg, Cmax of 5-MeO-DMT in whole brain
5-HT2A [6] = conditions: rats; ref Bedard and Pycock 1977; Matthews and Smith 1980; cited from earlier work
5-HT2A [7] = conditions: cited from earlier work
5-HT uptake = conditions: ref Berge et al. 1983; Chang et al. 1993; Nagai et al. 2007; cited from earlier work
[8] = 10 mg/kg IP; ref Sitaram et al. 1987; cited from earlier work
[9] = after SC administration of 1 mg/kg
[10] = clorgyline 0.3 mg/kg pretreatment

## COc1ccc2[nH]cc(CCN(C)C)c2c1 [5-MeO-DMT, 5-Methoxy-N,N-dimethyltryptamine]
Sprague–Dawley rats [1]; clorgyline 0.3 mg/kg pretreatment, 5-MeO-DMT 1.0 mg/kg SC, 45 min, experiment 2, n=12
  Startle magnitude (mean±SEM): 544.45±62.88
Sprague–Dawley rats [1]; vehicle pretreatment, 5-MeO-DMT 0.1 mg/kg SC, tested 45 min post-injection, experiment 1, n=10
  Startle magnitude (mean±SEM): 180.58±37.92
Sprague–Dawley rats [1]; vehicle pretreatment, 5-MeO-DMT 1.0 mg/kg SC, 45 min, experiment 1, n=10
  Startle magnitude (mean±SEM): 274.12±56.96
Sprague–Dawley rats [2]; 5-MeO-DMT 1.0 mg/kg SC in animals pretreated with clorgyline 0.3 mg/kg, 45 min, all three prepulse intensities, p<0.01
  Effect on PPI: significantly reduced PPI
Sprague–Dawley rats [2]; 5-MeO-DMT 1 mg/kg SC in animals pretreated with pargyline 10 mg/kg, 45 min, all three prepulse intensities, p<0.01
  Effect on PPI: significantly reduced PPI
Sprague–Dawley rats [2]; 5-MeO-DMT 1.0 mg/kg SC, saline-pretreated animals, 45 min, experiment 2
  Effect on PPI: did not alter PPI
Sprague–Dawley rats [2]; 5-MeO-DMT 0.1 or 1.0 mg/kg SC, saline-pretreated animals, tested 45 min post-injection, experiment 1
  Effect on PPI: did not alter PPI
Sprague–Dawley rats [3]
  Crossings (locomotor activity) versus vehicle pretreatment: significantly more crossings
[4]; [9]
  time at which level of 5-MeO-DMT in plasma peaked: ≤ 20 min
[4]; [10]
  AUC: 31.4 ± 2.3 ng·h/mL
  Cmax: 78.1 ± 9.5 ng/mL
[4]; vehicle pretreatment
  AUC: 12.2 ± 1.7 ng·h/mL
  Cmax: 52.7 ± 11.8 ng/mL
[5]; 1 mg/kg SC, no MAO inhibitor
  peak level of 5-MeO-DMT in the brain: 144.3 nM
[5]; [9]
  time at which level of 5-MeO-DMT in brain peaked: ≤ 20 min
[5]; 1 mg/kg SC, clorgyline 0.3 mg/kg pretreatment
  Cmax: 634 ± 146 ng/g
[5]; 1 mg/kg SC, vehicle pretreatment
  Cmax: 30.3 ± 11.2 ng/g
5-HT2A [6]
  doses eliciting the head twitch response (HTR): 0.2 to 1 mg/kg
5-HT2A [7]; ref Blair et al. 2000, Parrish and Nichols 2006
  concentration of 5-MeO-DMT required to activate 5-HT2A: low micromolar range
5-HT2A [7]; ref Newton et al. 1996, Rabin et al. 2002, Kurrasch-Orbaugh et al. 2003, Strachan et al. 2010
  concentration of 5-MeO-DMT required to activate 5-HT2A: several hundred nanomolar
5-HT uptake
  concentrations inhibiting 5-HT uptake: low micromolar concentrations
[8]
  increase of 5-MeO-DMT blood levels by iproniazid: 40 fold
  increase of 5-MeO-DMT brain levels by iproniazid: ~100 fold

## C#CCN(C)CCCOc1ccc(Cl)cc1Cl.Cl [Clorgyline, N-methyl-N-propargyl-3-(2,4-dichlorophenoxy)-propylamine HCl]
Sprague–Dawley rats [1]; clorgyline 0.3 mg/kg SC pretreatment, vehicle treatment, experiment 2, n=12
  Startle magnitude (mean±SEM): 422.31±78.47

## OC(c1ccccc1)C1CCN(CCc2ccccc2)CC1 (stereo not drawn) [MDL 11,939, α-Phenyl-1-(2-phenylethyl)-4-piperidinemethanol]
Sprague–Dawley rats [1]; MDL 11,939 0.3 mg/kg pretreatment, pargyline 10 + 5-MeO-DMT 1.0 mg/kg, experiment 3, n=10
  Startle magnitude (mean±SEM): 419.79±48.30
Sprague–Dawley rats [2]; MDL 11,939 0.3 mg/kg pretreatment, p<0.01, Tukey's test
  Effect of pretreatment on ability of pargyline and 5-MeO-DMT to reduce PPI: significantly attenuated

## C#CCN(C)Cc1ccccc1 [Pargyline, pargyline HCl]
Sprague–Dawley rats [1]; pargyline 10 mg/kg SC pretreatment, vehicle treatment, experiment 1, n=10
  Startle magnitude (mean±SEM): 167.66±22.30
Sprague–Dawley rats [2]; pargyline 10 mg/kg alone compared with vehicle pretreatment
  Effect on PPI: did not significantly reduce PPI

## COc1ccccc1N1CCN(CCN(C(=O)C2CCCCC2)c2ccccn2)CC1.O=C(O)/C=C\C(=O)O [WAY-100635, N-[2-[4-(2-methoxyphenyl)-1-piperazinyl]ethyl]-N-2-pyridinylcyclohexanecarboxamide maleate]
Sprague–Dawley rats [1]; WAY-100635 1.0 mg/kg SC pretreatment, vehicle treatment, experiment 3, n=10
  Startle magnitude (mean±SEM): 271.30±51.26
Sprague–Dawley rats [1]; WAY-100635 1.0 mg/kg pretreatment, pargyline 10 + 5-MeO-DMT 1.0 mg/kg, experiment 3, n=10
  Startle magnitude (mean±SEM): 172.03±47.00
Sprague–Dawley rats [2]; WAY-100,635 1 mg/kg pretreatment, p<0.01, Tukey's test
  Effect of pretreatment on reduction of PPI produced by 10 mg/kg pargyline and 1 mg/kg 5-MeO-DMT: significantly antagonized

— paper PMC5403252 (Pharmacology, biochemistry, and behavior, 2016)
